Measured values as given in US11076595B2, “1-(n,n-disubstituted carbamoyl) 4-(substituted sulfonyl)triazolin-5-one derivative, 4-(n,n-disubstituted carbamoyl) 1-(substituted sulfonyl)triazolin-5-one derivative, and herbicide containing said derivative as active ingredient” (HOKKO CHEMICAL INDUSTRY CO., LTD., priority 2017, dated 2021).

Columns and labels:
Format in all cases: in vivo
Monochoria vaginalis [1] = assay: Test Example 12: herbicidal effect test by treatment during growing period in paddy field; details: 120 g/10a; treatment seven days after sowing in flooded paddy pot; assessed 14 days after treatment
In short: (§1)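 Seeds (30 per species) are sown shallowly into fertilized, puddled paddy soil kept under ~3 cm of water in a greenhouse. One week later, compound formulated as an emulsifiable concentrate is applied dropwise to the water at 120 g a.i./10 are. After 14 days, dry weights give percent suppression against untreated controls.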

Lindernia pyxidaria [2] = assay: as above; details: 120 g/10a; treatment seven days after sowing in flooded paddy pot; assessed 14 days after treatment
In short: as §1

Echinochloa crus-galli [3] = assay: as above; details: 120 g/10a; treatment seven days after sowing in flooded paddy pot; assessed 14 days after treatment
In short: as §1

Scirpus juncoides [4] = assay: as above; details: 120 g/10a; treatment seven days after sowing in flooded paddy pot; assessed 14 days after treatment
In short: as §1

Monochoria vaginalis [5] = assay: Test Example 11: herbicidal effect test by soil treatment in paddy field; details: 120 g/10a active ingredient, 14 days after treatment
In short: (§2)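 Pre-emergence paddy test, 120 g a.i./10 are, emulsifiable concentrate diluted in water and added dropwise to ~3 cm flood water right after sowing (30 seeds/species, 0–1 cm depth, fertilized puddled soil). Greenhouse; 2 replicates; dry-weight suppression (%) vs untreated, day 14.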

Lindernia pyxidaria [6] = assay: as above; details: 120 g/10a active ingredient, 14 days after treatment
In short: as §2

Echinochloa crus-galli [7] = assay: as above; details: 120 g/10a active ingredient, 14 days after treatment
In short: as §2

Scirpus juncoides [8] = assay: as above; details: 120 g/10a active ingredient, 14 days after treatment
In short: as §2

| SMILES | Weed suppression rate (%) Monochoria vaginalis (Monochoria vaginalis [1]) [%] | Weed suppression rate (%) Lindemia pyxidaria (Lindernia pyxidaria [2]) [%] | Weed suppression rate (%) Echinochloa crus-galli (Echinochloa crus-galli [3]) [%] | Weed suppression rate (%) Scirpus juncoides (Scirpus juncoides [4]) [%] | Weed suppression rate (%) Monochoria vaginalis (Monochoria vaginalis [5]) [%] | Weed suppression rate (%) Lindemia pyxidaria (Lindernia pyxidaria [6]) [%] | Weed suppression rate (%) Echinochloa crus-galli (Echinochloa crus-galli [7]) [%] | Weed suppression rate (%) Scirpus juncoides (Scirpus juncoides [8]) [%] |
| --- | --- | --- | --- | --- | --- | --- | --- | --- |
| CC(C)N(C(=O)n1cnn(S(=O)(=O)c2ccccc2Cl)c1=O)c1ccc(F)cc1Cl [Compound 11-519] | 70 | 70 | 80 | 80 | 70 | 100 | 100 | 100 |
| Cc1ccc(N(C(=O)n2cnn(S(=O)(=O)c3ccccc3Cl)c2=O)C(C)C)c(F)c1 [Compound 11-526] | 80 | 80 | 90 | 90 | 80 | 80 | 90 | 90 |
| CC(C)N(C(=O)n1cnn(S(=O)(=O)c2c(F)c(F)c(F)c(F)c2F)c1=O)c1ccccc1F [Compound 11-801] | 80 | 60 | 90 | 60 | 90 | 90 | 90 | 90 |
| CC(C)N(C(=O)n1cnn(S(=O)(=O)c2cccc(F)c2)c1=O)c1cccc(F)c1F [Compound 11-437] | 100 | 100 | 100 | 100 | 80 | 80 | 100 | 80 |
| CC(C)N(C(=O)n1cnn(S(=O)(=O)c2ccccc2Cl)c1=O)c1ccc(F)c(F)c1F [Compound 11-515] | 100 | 70 | 100 | 100 | 80 | 90 | 100 | 100 |
| CC(C)N(C(=O)n1cnn(S(=O)(=O)c2cccc(F)c2)c1=O)c1c(F)c(F)cc(F)c1F [Compound 11-443] | 70 | 70 | 70 | 100 | 70 | 70 | 80 | 100 |
| CC(C)N(C(=O)n1cnn(S(=O)(=O)c2ccccc2Cl)c1=O)c1ccc(Cl)cn1 [Compound 11-536] | 60 | 80 | 90 | 90 | 60 | 90 | 90 | 60 |
| CC(C)N(Cc1ccc(F)cc1F)C(=O)n1cnn(S(=O)(=O)N(C)C)c1=O [Compound 11-1088] | 80 | 80 | 90 | 90 | 80 | 80 | 90 | 90 |
| CC(C)N(C(=O)n1cnn(S(=O)(=O)N(C)C)c1=O)c1ccc(Cl)cc1Br [Compound 11-1076] | 30 | 60 | 90 | 60 | 60 | 60 | 90 | 60 |
| Cc1ccc(S(=O)(=O)n2ncn(C(=O)N(c3ccc(F)c(F)c3F)C(C)C)c2=O)cc1 [Compound 11-640] | 100 | 70 | 80 | 90 | 70 | 100 | 100 | 90 |
| CC(C)N(C(=O)n1cnn(S(=O)(=O)c2ccc(Cl)cc2)c1=O)c1ccc(F)c(F)c1F [Compound 11-591] | 70 | 70 | 60 | 100 | 70 | 90 | 100 | 60 |
| Cc1ccc(S(=O)(=O)n2ncn(C(=O)N(c3c(F)c(F)cc(F)c3F)C(C)C)c2=O)cc1 [Compound 11-642] | 90 | 70 | 100 | 100 | 70 | 80 | 100 | 70 |
| CC(C)N(C(=O)n1cnn(S(=O)(=O)C2CC2)c1=O)c1cccc(F)c1 [Compound 11-161] | 80 | 80 | 90 | 90 | 70 | 100 | 100 | 90 |
| CC(C)N(C(=O)n1cnn(S(=O)(=O)c2ccc(F)cc2)c1=O)c1ccc(F)c(F)c1F [Compound 11-478] | 90 | 70 | 100 | 100 | 100 | 100 | 100 | 100 |
| CC(C)N(C(=O)n1cnn(S(=O)(=O)c2ccccc2F)c1=O)c1cccc(F)c1F [Compound 11-401] | 100 | 80 | 100 | 100 | 100 | 100 | 100 | 90 |
| CC(C)N(C(=O)n1cnn(S(=O)(=O)c2cccs2)c1=O)c1ccc(C(F)(F)F)cc1Cl [Compound 11-1042] | 80 | 80 | 90 | 90 | 80 | 80 | 90 | 90 |
